Data taken from the NIST ThermoML archive (doi:10.1016/j.jct.2005.12.005).

Assays:
[1] = 101 kPa, Liquid
[2] = refractive index (Na D-line) (dimensionless); details: 101.33 kPa, Liquid
[3] = xn = mol fraction of the nth substance listed; details: 101 kPa, Liquid; for speed of sound: Sing-around technique in a fixed-path interferometer
[4] = refractive index (Na D-line) (dimensionless); xn = mol fraction of the nth substance listed; details: 101 kPa, Liquid

CC1CCCCC1 [methylcyclohexane]
Details | mass density, 298.15 K [kg/m3] | mass density, 303.15 K [kg/m3] | mass density, 308.15 K [kg/m3] | refractive index, 298.15 K | refractive index, 303.15 K | refractive index, 308.15 K | viscosity, 298.15 K [mPa·s] | viscosity, 303.15 K [mPa·s] | viscosity, 308.15 K [mPa·s]
[1] | 765 | 760.7 | 756.3 | – | – | – | 0.676 | 0.631 | 0.59
[2] | – | – | – | 1.4217 | 1.4192 | 1.4163 | – | – | –

Details | speed of sound [m/s]
[1], 298.15 K, Sing-around technique in a fixed-path interferometer | 1217

Cc1cc(C)cc(C)c1 [1,3,5-trimethylbenzene] + CC1CCCCC1
Details | mass density, 298.15 K [kg/m3] | mass density, 303.15 K [kg/m3] | mass density, 308.15 K [kg/m3] | refractive index, 298.15 K | refractive index, 303.15 K | refractive index, 308.15 K | speed of sound, 298.15 K [m/s] | viscosity, 298.15 K [mPa·s] | viscosity, 303.15 K [mPa·s] | viscosity, 308.15 K [mPa·s]
[3], x2 = 0 | 861.2 | 857.1 | 853 | – | – | – | 1346 | 0.667 | 0.622 | 0.586
[3], x2 = 0.1007 | 851.6 | 847.5 | 843.3 | – | – | – | 1328 | 0.653 | 0.612 | 0.577
[3], x2 = 0.1993 | 842 | 837.9 | 833.8 | – | – | – | 1312 | 0.638 | 0.6 | 0.569
[3], x2 = 0.3035 | 832 | 827.9 | 823.7 | – | – | – | 1295 | 0.629 | 0.592 | 0.559
[3], x2 = 0.4063 | 822 | 817.9 | 813.7 | – | – | – | 1280 | 0.622 | 0.584 | 0.553
[3], x2 = 0.4974 | 813.1 | 808.9 | 804.8 | – | – | – | 1267 | 0.62 | 0.603 | 0.547
[3], x2 = 0.6085 | 802.2 | 798.1 | 793.9 | – | – | – | 1253 | 0.621 | 0.582 | 0.548
[3], x2 = 0.7027 | 793.1 | 788.9 | 784.7 | – | – | – | 1244 | 0.627 | 0.588 | 0.553
[3], x2 = 0.7973 | 784 | 779.7 | 775.5 | – | – | – | 1235 | 0.638 | 0.598 | 0.566
[3], x2 = 0.902 | 774.1 | 769.8 | 765.6 | – | – | – | 1225 | 0.654 | 0.622 | 0.575
[4], x2 = 0 | – | – | – | 1.496 | 1.4936 | 1.4913 | – | – | – | –
[4], x2 = 0.1007 | – | – | – | 1.489 | 1.4865 | 1.4843 | – | – | – | –
[4], x2 = 0.1993 | – | – | – | 1.4817 | 1.4809 | 1.4771 | – | – | – | –
[4], x2 = 0.3035 | – | – | – | 1.474 | 1.473 | 1.4692 | – | – | – | –
[4], x2 = 0.4063 | – | – | – | 1.4663 | 1.4647 | 1.4614 | – | – | – | –
[4], x2 = 0.4974 | – | – | – | 1.4593 | 1.4565 | 1.4544 | – | – | – | –
[4], x2 = 0.6085 | – | – | – | 1.4508 | 1.4529 | 1.4459 | – | – | – | –
[4], x2 = 0.7027 | – | – | – | 1.4436 | 1.4421 | 1.4386 | – | – | – | –
[4], x2 = 0.7973 | – | – | – | 1.4363 | 1.4347 | 1.4312 | – | – | – | –
[4], x2 = 0.902 | – | – | – | 1.4285 | 1.4265 | 1.4233 | – | – | – | –

c1ccccc1 [benzene] + CC1CCCCC1
x2 = 0
Details | mass density, 298.15 K [kg/m3] | mass density, 303.15 K [kg/m3] | mass density, 308.15 K [kg/m3] | refractive index, 298.15 K | refractive index, 303.15 K | refractive index, 308.15 K | speed of sound, 298.15 K [m/s] | viscosity, 298.15 K [mPa·s] | viscosity, 303.15 K [mPa·s] | viscosity, 308.15 K [mPa·s]
[3] | 873.4 | 868.1 | 862.7 | – | – | – | 1302 | 0.602 | 0.56 | 0.523
[4] | – | – | – | 1.4971 | 1.4936 | 1.4903 | – | – | – | –

CC1CCCCC1 [methylcyclohexane] + Cc1cc(C)cc(C)c1
x1 = 1
Details | mass density, 298.15 K [kg/m3] | mass density, 303.15 K [kg/m3] | mass density, 308.15 K [kg/m3] | refractive index, 298.15 K | refractive index, 303.15 K | refractive index, 308.15 K | speed of sound, 298.15 K [m/s] | viscosity, 298.15 K [mPa·s] | viscosity, 303.15 K [mPa·s] | viscosity, 308.15 K [mPa·s]
[3] | 765 | 760.7 | 756.3 | – | – | – | 1217 | 0.676 | 0.631 | 0.59
[4] | – | – | – | 1.4217 | 1.4192 | 1.4163 | – | – | – | –
